According to US20240261272A1, “LPA1 ANTAGONISTS FOR TREATING INTERSTITIAL LUNG DISEASE” (Bristol-Myers Squibb Company, priority 2022, published 2024):

Key:
[1] = Phase 1 Part A single ascending dose (SAD) study in healthy participants: safety, blood pressure; type: in vivo, human; parameters: Mean DBP: unit not given here
Description: The study was performed in 3 parts in 112 healthy male and female participants, including 24 Japanese participants. Female participants were to be not of childbearing potential. The present study was designed to evaluate the safety and tolerability, PK, and exploratory PD of an oral suspension of Compound A. Parts A and B (Cohort B1 only) enrolled healthy participants and was conducted at a site in The Netherlands and Part B (Cohort B2 to B5) enrolled healthy non-Japanese participants and was conducted at a site in the United Kingdom (UK). Part C enrolled healthy Japanese participants and was conducted at the same site in the UK.
Part A was an SAD study in a planned number of 6 sequential dose escalation cohorts (3, 10, 30, 100, 150, or 250 mg) of 8 healthy participants (6 active+2 placebo) each, under fasted conditions. Eligible participants in Part A (excluding those in Cohort A7 [food effect (FE)/pH cohort]) received a single administration of study drug (Compound A or placebo) under fasted conditions. In Cohort A1 to Cohort A6, sentinel dosing was employed (1 active+1 placebo, followed after 48 hours by the remaining participants of the cohort [5 active+1 placebo]). […] In addition to the 6 ascending dose cohorts, a cohort of 6 healthy participants (Cohort A7; 6 active, 100 mg Compound A) was included to assess the effect of food and pH on the bioavailability of Compound A in a 3-period, open-label, fixed-sequence, crossover design (FE/pH cohort).
Physical examinations, vital sign measurements (including orthostasis testing in Cohort A6, Cohort B3 to B5, and C1 to C3 at selected time points), 12-lead electrocardiogram (ECG), and clinical laboratory evaluations were performed at selected times throughout the study. In addition, Holter monitoring was performed for the first 24 hours post dose on Day 1 in Part A (not in FE/pH cohort), and also for the first 24 hours post dose on Day 1 and Day 14 in Parts B and C. Participants were closely monitored for adverse events (AEs). Blood samples were collected for up to 14 days (follow-up visit) after (last) study drug administration for PK analysis. In addition, blood and urine were collected for exploratory biomarker assessments and for biobanking of samples for potential analyses. Urine was collected for potential PK analysis for up to 96 hours after a single dose of Compound A or placebo was administered in the SAD part, and for up to 24 hours after the first (morning) dose of study drug on Day 1 and for up to 24 hours after the last (morning) dose of study drug on Day 14 in the MAD parts.

[2] = Phase 2 study, PPF cohort: safety, adverse events, prespecified blood pressure reduction criteria, dose reductions; type: in vivo, human; conditions: for Asymptomatic blood pressure reduction, patients (%) / Asymptomatic blood pressure reduction, patients, no. / Symptomatic blood pressure reduction, patients (%) / Symptomatic blood pressure reduction, patients, no.: prespecified criteria
Description: A total of 123 participants with PPF were randomized. Participants (age ≥21 years) were randomized (1:1:1) to receive 30 mg or 60 mg Compound A or PBO twice daily for 26 weeks. […] Immunosuppressive medications (mycophenolate mofetil, mycophenolic acid, azathioprine and/or tacrolimus) were permitted only if dosing is stable for ≥6 months prior to screening. If receiving antifibrotic agents pirfenidone or nintedanib, patients had to receive a stable dosage for ≥3 months prior to screening and during the screening period; if not receiving pirfenidone or nintedanib, patients had to be naive to both drugs or not have received either 4 weeks prior to Day 1. A total of 47 (38.2%) subjects were receiving antifibrotic treatment (with or without immunosuppression therapy). Of those subjects, 34 were being treated with nintedanib and 13 with pirfenidone. Participants were stratified by usual interstitial pneumonia (UIP) pattern (presence versus absence) and background therapy (antifibrotics +/−ILD-targeted immunosuppression versus ILD-targeted immunosuppression alone versus none).UIP pattern was present in 52% of subjects and unclassifiable ILD was he most common disease categorization.
Patient is experiencing any of the following, confirmed by retest within 15 minutes: • Seated systolic blood pressure <85 mmHg • Seated diastolic blood pressure <55 mmHg • Orthostatic hypotension
Patient is experiencing symptoms that, in the investigator's opinion, could be associated with a reduction in blood pressure and is also experiencing at least one of the following, confirmed by retest within 15 minutes: • Seated systolic blood pressure <100 mmHg or seated diastolic blood pressure <60 mmHg • Decrease of seated systolic blood pressure of ≥20 mmHg from the previous visit or decrease of seated diastolic blood pressure of ≥10 mmHg from the previous visit • Orthostatic hypotension • Orthostatic tachycardia

CCCN(C)C(=O)OCc1c(-c2ccc(O[C@H]3CCC[C@H](C(=O)O)C3)c(C)n2)nnn1C [Compound A, (1S,3S)-3-((2-methyl-6-(1-methyl-5-(((methyl(propyl)carbamoyl)-oxy)methyl)-1H-1,2,3-triazol-4-yl)pyridin-3-yl)oxy)cyclohexane-1-carboxylic acid]
Mean DBP ([1]; 100 mg Fasted + Famotidine, D 1 2 h): 67.2
Mean DBP ([1]; 100 mg Fasted + Famotidine, D 1 4 h): 65.3
Mean DBP ([1]; 100 mg Fasted + Famotidine, D 1 8 h): 63.2
Mean DBP ([1]; 100 mg Fasted + Famotidine, D 2 24 h): 71.7
Mean DBP ([1]; 100 mg Fasted, D 1 2 h): 67.2
Mean DBP ([1]; 100 mg Fasted, D 1 4 h): 64.2
Mean DBP ([1]; 100 mg Fasted, D 1 8 h): 63.0
Mean DBP ([1]; 100 mg Fasted, D 2 24 h): 69.3
Mean DBP ([1]; 100 mg Fed, D 1 2 h): 57.2
Mean DBP ([1]; 100 mg Fed, D 1 4 h): 58.2
Mean DBP ([1]; 100 mg Fed, D 1 8 h): 58.8
Mean DBP ([1]; 100 mg Fed, D 2 24 h): 69.3
Mean DBP ([1]; SAD 3 mg, D 1 2 h): 68.3
Mean DBP ([1]; SAD 3 mg, D 1 4 h): 69.5
Mean DBP ([1]; SAD 3 mg, D 1 8 h): 68.0
Mean DBP ([1]; SAD 3 mg, D 2 24 h): 68.7
Mean DBP ([1]; SAD 10 mg, D 1 2 h): 67.7
Mean DBP ([1]; SAD 10 mg, D 1 4 h): 68.7
Mean DBP ([1]; SAD 10 mg, D 1 8 h): 63.0
Mean DBP ([1]; SAD 10 mg, D 2 24 h): 71.7
Mean DBP ([1]; SAD 30 mg, D 1 2 h): 66.2
Mean DBP ([1]; SAD 30 mg, D 1 4 h): 65.2
Mean DBP ([1]; SAD 30 mg, D 1 8 h): 65.2
Mean DBP ([1]; SAD 30 mg, D 2 24 h): 71.0
Mean DBP ([1]; SAD 100 mg, D 1 2 h): 59.0
Mean DBP ([1]; SAD 100 mg, D 1 4 h): 58.7
Mean DBP ([1]; SAD 100 mg, D 1 8 h): 56.3
Mean DBP ([1]; SAD 100 mg, D 2 24 h): 66.0
Mean DBP ([1]; SAD 150 mg, D 1 2 h): 58.2
Mean DBP ([1]; SAD 150 mg, D 1 4 h): 56.0
Mean DBP ([1]; SAD 150 mg, D 1 8 h): 57.8
Mean DBP ([1]; SAD 150 mg, D 2 24 h): 66.2
dose-limiting events (in words) ([1]; SAD Cohort A6, 250 mg, sentinel participants): dose-limiting events observed in a sentinel participant
effect on SBP and DBP (in words) ([1]; SAD cohorts): decreased SBP and DBP dose dependently, reversibly, and mostly asymptomatically
safety and tolerability (in words) ([1]; single and multiple dose oral administration to healthy participants): generally safe and well tolerated
day-1 blood pressure reduction (in words) [2]: dose dependent day-1 blood pressure reduction
hepatobiliary toxicity (in words) [2]: No hepatobiliary toxicity
tolerability and safety findings (in words) [2]: well-tolerated, demonstrated no unexpected safety findings
Dose dependent low BP thresholds ("events") ([2]; 30 mg): 30%
≥1 TEAE related to study drug, no. ([2]; 30 mg (n = 40)): 7
≥1 TEAE, no. ([2]; 30 mg (n = 40)): 33
≥1 TESAE, no. ([2]; 30 mg (n = 40)): 4
≥1 TEAE related to study drug, no. ([2]; 60 mg (n = 42)): 11
≥1 TEAE, no. ([2]; 60 mg (n = 42)): 28
≥1 TESAE, no. ([2]; 60 mg (n = 42)): 5
Orthostatic hypotension (asymptomatic and symptomatic), comparison of groups (in words) ([2]; 60 mg group): higher in the 60 mg group than for other groups
Dose reductions, patients (%) ([2]; 30-mg Compound A (n = 40)): (15.0) %
Dose reductions, patients, no. ([2]; 30-mg Compound A (n = 40)): 6
Orthostatic hypotension (under asymptomatic blood pressure reduction), patients (%) ([2]; 30-mg Compound A (n = 40)): (15.0) %
Orthostatic hypotension (under asymptomatic blood pressure reduction), patients, no. ([2]; 30-mg Compound A (n = 40)): 6
Orthostatic hypotension (under symptomatic blood pressure reduction), patients (%) ([2]; 30-mg Compound A (n = 40)): (2.5) %
Orthostatic hypotension (under symptomatic blood pressure reduction), patients, no. ([2]; 30-mg Compound A (n = 40)): 1
Asymptomatic blood pressure reduction, patients (%) ([2]; 30-mg Compound A (n = 40)): (22.5) %
Asymptomatic blood pressure reduction, patients, no. ([2]; 30-mg Compound A (n = 40)): 9
Symptomatic blood pressure reduction, patients (%) ([2]; 30-mg Compound A (n = 40)): (5.0) %
Symptomatic blood pressure reduction, patients, no. ([2]; 30-mg Compound A (n = 40)): 2
Dose reductions, patients (%) ([2]; 60-mg Compound A (n = 42)): (11.9) %
Dose reductions, patients, no. ([2]; 60-mg Compound A (n = 42)): 5
Orthostatic hypotension (under asymptomatic blood pressure reduction), patients (%) ([2]; 60-mg Compound A (n = 42)): (26.2) %
Orthostatic hypotension (under asymptomatic blood pressure reduction), patients, no. ([2]; 60-mg Compound A (n = 42)): 11
Orthostatic hypotension (under symptomatic blood pressure reduction), patients (%) ([2]; 60-mg Compound A (n = 42)): (9.5) %
Orthostatic hypotension (under symptomatic blood pressure reduction), patients, no. ([2]; 60-mg Compound A (n = 42)): 4
Asymptomatic blood pressure reduction, patients (%) ([2]; 60-mg Compound A (n = 42)): (31.0) %
Asymptomatic blood pressure reduction, patients, no. ([2]; 60-mg Compound A (n = 42)): 13
Symptomatic blood pressure reduction, patients (%) ([2]; 60-mg Compound A (n = 42)): (14.3) %
Symptomatic blood pressure reduction, patients, no. ([2]; 60-mg Compound A (n = 42)): 6
marked laboratory abnormalities (in words) ([2]; among treatment groups): No notable imbalances in marked laboratory abnormalities among treatment groups
